Measurements reported in patent EP0409227A2, “Pyrimidine nucleosides, their preparation and pharmaceutical preparations” (MATTHES, Eckart, Dr., priority 1989, dated 1991).
pIC50: −log10 of the molar value. Read-outs that look alike come from different tables or passages of the source.

Assays:
HBV-Polymerase = biological target: T1, HBV-Polymerase (Hepatitis B virus genotype D subtype ayw, UniProt P03156); experiment: Inhibition of HBV polymerase activity by nucleoside triphosphate analogues (method of Kaplan et al.); format: biochemical; conditions: 50 % inhibition of HBV polymerase activity; 3 h incubation at 37 °C; read-out: ID₅₀
T1 construct: Es wurde zunächst die Hemmbarkeit der HBV-assoziierten Polymerase; host or cells: virus-associated endogenous polymerase
Description: Das Hepatitis B Virus (HBV) besitzt eine zirkuläre, partiell doppelsträngige DNA, welche nach Infektion einer Leberzelle durch eine viruseigene Polymerase repliziert wird. Dieser Vorgang setzt jedoch die Synthese einer RNA durch eine zelluläre RNA-Polymerase voraus. Nur diese RNA-Matrize - im Zusammenhang mit der Replikation auch als Prägenom bezeichnet - kann von der HBV-Polymerase für die Synthese zunächst eines RNA-DNA Hybrids und dann der doppelsträngigen DNA benutzt werden. Damit verfügt die HBV-Polymerase über eine enzymatische Aktivität, die der einer reversen Transcriptase ähnelt (Will et al., J.Virology 61, 904 (1987)). Es wurde zunächst die Hemmbarkeit der HBV-assoziierten Polymerase durch die 5′-Triphosphate der erfindungsgemäßen Verbindungen untersucht. Dazu wurde die von Kaplan et al. (J.Virology 12, 995 (1973)) angegebene Methode zur Bestimmung der HBV-Polymerase benutzt, wobei die zu testenden Triphosphate den Ansätzen in verschiedenen Konzentrationen zugesetzt wurden. Die Hemmung der Enzymreaktion wurde nach 3-stündiger Inkubation bei 37 °C durch Vergleich mit einem Kontrollwert ermittelt und daraus die Konzentration der zugesetzten Analoga bestimmt, die zu einer 50 %igen Hemmung der HBV-Polymerase-Aktivität führt (ID₅₀). Tabelle 1 zeigt die Ergebnisse, wobei insbesondere 2′,3′-Didesoxy-3′-fluor-5-methylcytidin durch einen Wert ID₅₀ von 0,03 µM herausragt und damit zu den stärksten bisher bekannten Hemmstoffen der HBV-Polymerase zu rechnen ist. Tabelle 1

DNA-Polymerase-alpha = biological target: T2, DNA-Polymerase-alpha (Homo sapiens, UniProt P09884); experiment: Effect of modified nucleoside triphosphates on cellular DNA polymerase alpha; format: biochemical; conditions: read-out: ID₅₀ (µM) DNA-Polymerase- alpha
T2 construct: Die Isolierung der Enzyme und deren Aktivitätsbestimmung erfolgte entsprechend der Methode von Matthes et al; from tissue
T2 sequence (P09884 1-1462): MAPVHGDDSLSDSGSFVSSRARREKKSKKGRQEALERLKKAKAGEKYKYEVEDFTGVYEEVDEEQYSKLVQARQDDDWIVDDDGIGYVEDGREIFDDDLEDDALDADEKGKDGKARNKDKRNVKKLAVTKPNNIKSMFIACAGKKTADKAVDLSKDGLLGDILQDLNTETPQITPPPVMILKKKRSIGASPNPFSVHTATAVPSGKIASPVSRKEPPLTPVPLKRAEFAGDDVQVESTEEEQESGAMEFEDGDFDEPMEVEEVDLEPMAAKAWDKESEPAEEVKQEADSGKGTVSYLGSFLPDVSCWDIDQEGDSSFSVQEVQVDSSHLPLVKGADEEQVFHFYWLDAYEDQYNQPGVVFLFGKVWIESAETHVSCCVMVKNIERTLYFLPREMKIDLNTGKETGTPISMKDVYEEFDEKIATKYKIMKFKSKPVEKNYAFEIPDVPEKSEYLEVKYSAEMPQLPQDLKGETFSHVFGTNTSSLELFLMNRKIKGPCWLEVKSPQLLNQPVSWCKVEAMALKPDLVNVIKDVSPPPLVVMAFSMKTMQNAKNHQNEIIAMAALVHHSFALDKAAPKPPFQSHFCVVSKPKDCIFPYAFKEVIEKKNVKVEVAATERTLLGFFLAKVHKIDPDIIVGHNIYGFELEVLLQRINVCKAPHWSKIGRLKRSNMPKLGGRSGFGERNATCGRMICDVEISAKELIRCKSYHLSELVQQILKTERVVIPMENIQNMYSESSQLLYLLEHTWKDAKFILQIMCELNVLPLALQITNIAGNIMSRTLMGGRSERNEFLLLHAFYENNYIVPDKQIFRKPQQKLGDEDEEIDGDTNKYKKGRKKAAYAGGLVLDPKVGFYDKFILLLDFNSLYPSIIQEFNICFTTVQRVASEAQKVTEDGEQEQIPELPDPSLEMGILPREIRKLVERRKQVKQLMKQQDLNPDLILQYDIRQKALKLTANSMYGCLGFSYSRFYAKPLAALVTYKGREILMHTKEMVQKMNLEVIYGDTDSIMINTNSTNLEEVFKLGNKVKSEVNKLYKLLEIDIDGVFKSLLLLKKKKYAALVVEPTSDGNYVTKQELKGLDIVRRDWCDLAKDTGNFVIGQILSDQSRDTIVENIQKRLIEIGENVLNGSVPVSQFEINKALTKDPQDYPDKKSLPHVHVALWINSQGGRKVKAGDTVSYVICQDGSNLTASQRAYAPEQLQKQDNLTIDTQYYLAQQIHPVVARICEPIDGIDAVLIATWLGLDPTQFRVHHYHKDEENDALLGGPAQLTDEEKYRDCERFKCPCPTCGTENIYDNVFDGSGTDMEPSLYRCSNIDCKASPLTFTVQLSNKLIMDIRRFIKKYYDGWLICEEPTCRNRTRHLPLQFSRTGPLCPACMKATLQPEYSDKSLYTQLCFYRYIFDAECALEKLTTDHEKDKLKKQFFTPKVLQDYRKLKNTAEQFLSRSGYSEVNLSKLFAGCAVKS
Description: (§1) Um zu prüfen, inwieweit die beschriebene Wirkung auf die HBV-Polymerase selektiv ist, d.h., die zellulären DNA-Polymerasen von einer Hemmung durch die erfindungsgemäßen Nucleosidtriphosphate ausgenommen sind, wurden die zellulären DNA-Polymerasen-alpha und -beta in die Untersuchungen einbezogen. Die Isolierung der Enzyme und deren Aktivitätsbestimmung erfolgte entsprechend der Methode von Matthes et al. (Biomed.Biochim.Acta 44, K63-K73 (1985)). Die Ergebnisse der Tabelle 2 zeigen, daß die für die Replikation der zellulären DNA zuständige DNA-Polymerase alpha weitgehend unbeeinflußt bleibt. Eine 50 %ige Hemmung dieses Enzyms wird mit Ausnahme auch bei Hemmstoffkonzentrationen >100 µM noch nicht erreicht, so daß die DNA-Polymerase-alpha diesen Verbindungen gegenüber als nahezu resistent anzusehen ist. Für die DNA-Polymerase-beta, die als Reparaturenzym zellulärer DNA-Schäden angesehen wird, liegen die ID₅₀- Werte zwischen 1 und >200 µM. Damit besitzt die beschriebene Verbindung eine hohe Wirkungsspezifität. Tabelle 2

DNA-Polymerase-beta = biological target: T3, DNA-Polymerase-beta (Homo sapiens, UniProt P06746); experiment: Effect of modified nucleoside triphosphates on cellular DNA polymerase beta; format: biochemical; conditions: read-out: ID₅₀ (µM) DNA-Polymerase- beta
T3 construct: Die Isolierung der Enzyme und deren Aktivitätsbestimmung erfolgte entsprechend der Methode von Matthes et al; from tissue
Description: as §1

MT4 Zellen = experiment: Cytotoxicity: inhibition of proliferation of MT4 cells; format: cell-based
Protocol: Unter dem Aspekt einer möglichen Anwendung der Verbindungen am Menschen wurden ihre antiproliferativen Wirkungen an menschlichen Zellkulturen wie früher beschrieben getestet (E. Matthes et al. Biochem.Biophys.Res.Commun. 153, 825 (1988)). Dabei zeigte sich, daß z.B. 2′,3′-Didesoxy-3-fluor-5-methylcytidin gegenüber der T-Zellinie MT4 eine CD₅₀ von 190 µM aufweist. In einem weiteren Test, in dem eine mögliche Wachstumshemmung koloniebildender Zellen des Knochenmarks der Maus (CFU-GM) untersucht wurde (E. Matthes et al. Biochem.Biophys.Res.Commun. 165, 488 (1989), erwies sich diese Verbindung ebenfalls als kaum proliferationshemmend (CD₅₀ > 500 µM). Die Wirkung weiterer Verbindungen auf die Proliferation von MT4-Zellen ist in Tabelle 3 zusammengefaßt. Tabelle 3

T1 sequence (P03156 whole entry): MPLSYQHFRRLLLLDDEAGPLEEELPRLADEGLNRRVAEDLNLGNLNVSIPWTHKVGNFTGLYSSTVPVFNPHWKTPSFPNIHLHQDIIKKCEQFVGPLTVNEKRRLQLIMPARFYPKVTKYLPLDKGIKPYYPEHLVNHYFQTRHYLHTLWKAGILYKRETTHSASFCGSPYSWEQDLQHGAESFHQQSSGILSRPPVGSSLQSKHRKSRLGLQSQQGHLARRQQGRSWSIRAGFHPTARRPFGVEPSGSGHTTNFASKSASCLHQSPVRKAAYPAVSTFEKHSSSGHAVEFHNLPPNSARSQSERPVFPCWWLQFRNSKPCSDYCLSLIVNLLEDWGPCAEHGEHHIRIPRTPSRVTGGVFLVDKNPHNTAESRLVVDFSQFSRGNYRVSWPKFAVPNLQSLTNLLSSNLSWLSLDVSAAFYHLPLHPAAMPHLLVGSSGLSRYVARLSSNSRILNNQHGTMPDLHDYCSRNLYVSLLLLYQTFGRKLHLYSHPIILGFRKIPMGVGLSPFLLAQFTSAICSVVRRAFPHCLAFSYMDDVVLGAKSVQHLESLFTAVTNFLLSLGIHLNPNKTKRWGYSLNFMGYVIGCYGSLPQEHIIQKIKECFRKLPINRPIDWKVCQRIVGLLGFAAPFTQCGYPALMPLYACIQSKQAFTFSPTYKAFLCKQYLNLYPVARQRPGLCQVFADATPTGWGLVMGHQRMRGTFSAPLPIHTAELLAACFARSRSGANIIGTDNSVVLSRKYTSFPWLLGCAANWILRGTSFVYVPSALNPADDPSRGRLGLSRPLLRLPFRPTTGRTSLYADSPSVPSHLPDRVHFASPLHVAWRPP

Row | pIC50 (HBV-Polymerase) | IC50 (DNA-Polymerase-alpha) [µM] | IC50 (DNA-Polymerase-beta) [µM] | SMILES | CD₅₀ (MT4 Zellen; human, 48 h) [µM] | CD₅₀ (MT4 Zellen) [µM]
1 | 6.92 | > 200 | > 200 | Cc1cn([C@H]2C[C@H](N=[N+]=[N-])[C@@H](COP(=O)(O)OP(=O)(O)OP(=O)(O)O)O2)c(=O)nc1N [N₃MetdCTP, 2′,3′-Didesoxy-3′-azido-5-methylcytidin-5′-triphosphat] | – | –
2 | – | – | – | Nc1nc2c(ncn2[C@H]2C=C[C@@H](CO)O2)c(=O)[nH]1 [2′,3′-Didehydro-2′,3′-didesoxyguanosin] | 155 | –
3 | – | – | – | Nc1nc2c(ncn2[C@H]2C[C@H](N)[C@@H](CO)O2)c(=O)[nH]1 [2′,3′-Didesoxy-3′-aminoguanosin] | 210 | –
4 | 6.55 | > 200 | 10 | Cc1cn([C@H]2C=C[C@@H](COP(=O)(O)OP(=O)(O)OP(=O)(O)O)O2)c(=O)nc1N [ddeMetCTP, 2′,3′-Didehydro-2′,3′-didesoxy-5-methylcytidin-5′-triphosphat] | – | –
5 | – | – | – | Cc1cn([C@H]2CC[C@@H](CO)O2)c(=O)nc1N [2′,3′-Didesoxy-5-methylcytidin] | 110 | –
6 | – | – | – | Cc1cn([C@H]2C=C[C@@H](CO)O2)c(=O)nc1N [2′,3′-Didehydro-2′,3′-didesoxy-5-methylcytidin] | 205 | –
7 | 4.59 | > 200 | > 200 | Cc1cn([C@H]2C[C@H](N)[C@@H](COP(=O)(O)OP(=O)(O)OP(=O)(O)O)O2)c(=O)nc1N [NH₂MetdCTP, 2′,3′-Didesoxy-3′-amino-5-methylcytidin-5′-triphosphat] | – | –
8 | 5.80 | > 150 | 5 | Nc1nc2c(ncn2[C@H]2C=C[C@@H](COP(=O)(O)OP(=O)(O)OP(=O)(O)O)O2)c(=O)[nH]1 [ddeGTP, 2′,3′-Didehydro-2′,3′-didesoxyguanosin-5′-triphosphat] | – | –
9 | – | – | – | Nc1nc2c(ncn2[C@H]2C[C@H](F)[C@@H](CO)O2)c(=O)[nH]1 [2′,3′-Didesoxy-3′-fluorguanosin] | – | 250
10 | 5.74 | > 100 | 4.5 | Nc1ncnc2c1ncn2[C@H]1C=C[C@@H](COP(=O)(O)OP(=O)(O)OP(=O)(O)O)O1 [ddeATP, 2′,3′-Didehydro-2′,3′-didesoxyadenosin-5′-triphosphat] | – | –
11 | 5.10 | > 200 | > 100 | Cc1cn([C@H]2CC[C@@H](COP(=O)(O)OP(=O)(O)OP(=O)(O)O)O2)c(=O)nc1N [ddMetCTP, 2′,3′-Didesoxy-5-methylcytidin-5′-triphosphat] | – | –
12 | – | – | – | Cc1cn([C@H]2C[C@H](N=[N+]=[N-])[C@@H](CO)O2)c(=O)nc1N [2′,3′-Didesoxy-3′-azido-5-methylcytidin] | > 500 | –
13 | 6.82 | > 200 | 1.8 | Nc1nc2c(ncn2[C@H]2C[C@H](F)[C@@H](COP(=O)(O)OP(=O)(O)OP(=O)(O)O)O2)c(=O)[nH]1 [FdGTP, 2′,3′-Didesoxy-3′-fluorguanosin-5′-triphosphat] | – | –
14 | 5.60 | > 200 | 6 | Nc1ccn([C@H]2C=C[C@@H](COP(=O)(O)OP(=O)(O)OP(=O)(O)O)O2)c(=O)n1 [ddeCTP, 2′,3′-Didehydro-2′,3′-didesoxycytidin-5′-triphosphat] | – | –

Row | SMILES | pIC50 (HBV-Polymerase) | IC50 (DNA-Polymerase-alpha) [µM] | IC50 (DNA-Polymerase-beta) [µM] | CD₅₀ (MT4 Zellen; human, 48 h) [µM] | CD₅₀ (MT4 Zellen) [µM]
15 | CCc1cn([C@H]2C[C@H](F)[C@@H](COP(=O)(O)OP(=O)(O)OP(=O)(O)O)O2)c(=O)nc1N [FEtdCTP, 2′,3′-Didesoxy-3′-fluor-5-ethylcytidin-5′-triphosphat] | 6.46 | > 200 | 3 | – | –
16 | Cc1cn([C@H]2C[C@H](F)[C@@H](COP(=O)(O)OP(=O)(O)OP(=O)(O)O)O2)c(=O)nc1N [FMetdCTP, 2′,3′-Didesoxy-3′-fluor-5-methylcytidin-5′-triphosphat] | 7.52 | > 200 | 1 | – | –
17 | Cc1cn([C@H]2C[C@H](Cl)[C@@H](COP(=O)(O)OP(=O)(O)OP(=O)(O)O)O2)c(=O)nc1N [ClMetdCTP, 2′,3′-Didesoxy-3′chlor-5-methylcytidin-5′-triphosphat] | 5.05 | > 200 | 100 | – | –
